Residues, ends and D or L forms follow the SMILES beside them. *: point of attachment. Cbz = O=C(OCc1ccccc1)*; Boc = CC(C)(C)OC(=O)*
Tests used:
[1] = tested on: gastric secretion stimulated by the gastrin; assay: Antagonist effect: inhibition of gastrin (minigastrin)-stimulated acid secretion, stomach of a reperfused, anaesthetized rat; type: in vivo
From the text: (§1) The compounds according to the invention were studied as far as their therapeutical properties are concerned. More particularly, these compounds were studied in vivo as far as their gastric secretory effect in the rat is concerned. The model chosen for measuring the secretory effect is that of the stomach of a reperfused, anaesthetized rat. The protocol followed is a modification of the one described previously by Ghosh and Schild. A male rat of Wistar strain, weighing 300 g, having fasted for 18 hours, is anaesthetized with urethane (10% solution, 1.5 ml/100 g i.p.). A tracheotomy is then made, as well as a catheterism of the vein of the penis which will allow i.v. administration of the peptides. A cannula is then placed in the oesophagus up to the cardiac orifice and a second cannula in the duodenum (by a duodenotomy made about 3 cm from the pylorus) up to the antral gastric zone. A propionic-succinic solute (pH 5.5) which gives a linear variation of the pH as a function of the concentration of H^+ ions is used for perfusing the stomach in open or closed circuit with a flow rate of 3 ml/min. The body temperature, as well as that of the solute, is monitored and maintained at 30° C. The acid secretion of the stomach will bring about a variation in pH detected by the glass half-cell and recorded as a function of time. After stabilization of the basal secretion, gastrin is injected by the intravenous route, either in perfusion or in a single injection. The response is recorded as a function of time and the quantity of acid secretion is measured on the recording by difference with the basal secretion. The same experiment is carried out either by injecting the peptide to be studied i.v. on a plateau of acid secretion stimulated by the gastrin, or by associating the peptide with the stimulant in variable ratios of concentration. Finally, the peptide is administered alone at different doses in order to examine its agonist effect.

gastric secretion = assay: Agonist effect: gastric secretory effect of the peptide administered alone i.v., stomach of a reperfused, anaesthetized rat; type: in vivo; conditions: anaesthetized male Wistar rat
From the text: as §1

[2] = agonist minigastrin 0.6 μg/kg (single), dose of antagonist 1.5 mg/kg i.v.

Compound | Inhibiting effect (%) ([1]; agonist minigastrin 0.6 μg/kg (single), dose of antagonist 1.2 mg/kg i.v.) | Secretary effect (40 mins.) (gastric secretion; dose 5000 μg/kg) | Inhibiting effect (%) [1, 2] | Secretary effect (40 mins.) (gastric secretion; dose 10000 μg/kg) | Inhibiting effect (%) ([1]; agonist minigastrin 1.5 μg/kg/hr (perfusion), dose of antagonist 1.5 mg/kg i.v.) | Secretary effect (40 mins.) (gastric secretion; dose 1000 μg/kg)
CSCC[C@H](NC(=O)[C@H](Cc1c[nH]c2ccccc12)NC(=O)CNC(=O)[C@H](Cc1ccc(O)cc1)NC(=O)OC(C)(C)C)C(=O)N[C@@H](CC(=O)O)C(N)=O [Example 4, Boc--Tyr--Gly--Trp--Met--Asp--NH2] (Boc-YGWMD-NH2) | 50.4% | 0.1 μmol H^+ |  |  |  | 
CSCC[C@H](NC(=O)[C@H](Cc1c[nH]c2ccccc12)NC(=O)CNC(=O)[C@H](Cc1ccc(O)cc1)NC(=O)[C@H](C)NC(=O)[C@H](CCC(=O)O)NC(=O)OCc1ccccc1)C(=O)N[C@@H](CC(=O)O)C(N)=O [Example 5, Z--Glu--Ala--Tyr--Gly--Trp--Met--Asp--NH2] (Cbz-EAYGWMD-NH2) |  |  | 50% | 0 μmol H^+ |  | 
Z--Tyr(HSO3)--Met--Gly--Trp--Met--Asp--NH2 [Example 3] |  |  | 47% |  | 47.4% | 0.15 μmol H^+

From patent US4636490A, “Novel peptidic derivatives inhibiting gastric secretion, process for preparing them and drugs containing them” (Sanofi, priority 1983, dated 1987)
